Reference: ChEMBL document CHEMBL1129104, “Synthesis and evaluation of 2-(biphenylmethyl)glutaric acid amide derivatives as neutral endopeptidase inhibitors” (Bioorg Med Chem Lett, 1996)

Target: Neprilysin (Homo sapiens, UniProt P08473)
Experiment: In vitro inhibition of Neutral Endopeptidase

Sequence of Neprilysin (P08473 whole entry): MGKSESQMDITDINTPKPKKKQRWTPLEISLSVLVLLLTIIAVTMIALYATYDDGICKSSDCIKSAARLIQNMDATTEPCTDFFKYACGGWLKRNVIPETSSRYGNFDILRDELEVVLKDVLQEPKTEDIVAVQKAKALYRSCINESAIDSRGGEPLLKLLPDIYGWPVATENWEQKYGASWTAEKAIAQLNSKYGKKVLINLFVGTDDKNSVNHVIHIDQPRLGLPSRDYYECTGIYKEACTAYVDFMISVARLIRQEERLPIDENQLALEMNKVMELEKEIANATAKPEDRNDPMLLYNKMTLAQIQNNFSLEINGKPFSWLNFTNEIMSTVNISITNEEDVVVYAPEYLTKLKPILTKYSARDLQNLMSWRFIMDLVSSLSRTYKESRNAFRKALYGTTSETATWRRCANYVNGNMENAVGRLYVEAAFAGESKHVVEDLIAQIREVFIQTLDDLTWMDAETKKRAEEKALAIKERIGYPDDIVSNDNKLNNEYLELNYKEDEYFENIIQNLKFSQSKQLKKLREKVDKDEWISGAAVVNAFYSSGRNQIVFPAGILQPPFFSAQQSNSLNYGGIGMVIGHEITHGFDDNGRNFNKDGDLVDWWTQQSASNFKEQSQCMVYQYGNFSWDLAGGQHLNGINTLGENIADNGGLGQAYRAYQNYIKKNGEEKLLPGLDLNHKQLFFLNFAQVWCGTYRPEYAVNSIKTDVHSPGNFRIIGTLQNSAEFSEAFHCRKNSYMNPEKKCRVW

SMILES | IC50 [nM]
O=C(O)CC[C@@H](Cc1ccc(-c2ccccc2)cc1)C(=O)Nc1nc(CC(=O)O)cs1 | 122
O=C(O)Cc1csc(NC(=O)[C@H](Cc2ccc(-c3ccccc3)cc2)C[C@H](COc2ccccc2)C(=O)O)n1 | 3.3
O=C(O)C(COc1ccccc1)C[C@@H](Cc1ccc(-c2ccccc2)cc1)C(=O)NCc1nn[nH]n1 (some centres not stated) | 19
O=C(O)C(COc1ccccc1)C[C@@H](Cc1ccc(-c2ccccc2)cc1)C(=O)Nc1nnn[nH]1 (some centres not stated) | 7.4
O=C(O)Cc1csc(NC(=O)[C@H](Cc2ccc(-c3ccccc3)cc2)C[C@@H](COc2ccccc2)C(=O)O)n1 | 0.69
O=C(O)Cc1nnc(NC(=O)[C@H](Cc2ccc(-c3ccccc3)cc2)CC(COc2ccccc2)C(=O)O)s1 (some centres not stated) | 92
COCCOCC(CC1(C(=O)N[C@H]2CC[C@@H](C(=O)O)CC2)CCCC1)C(=O)Oc1ccc2c(c1)CCC2 (some centres not stated) | 65
O=C(O)CNC(=O)[C@H](Cc1ccc(-c2ccccc2)cc1)C[C@@H](COc1ccccc1)C(=O)O | 3.2
O=C(O)CNC(=O)[C@H](Cc1ccc(-c2ccccc2)cc1)C[C@H](COc1ccccc1)C(=O)O | 5.9
CC(C[C@@H](Cc1ccc(-c2ccccc2)cc1)C(=O)Nc1nc(CC(=O)O)cs1)C(=O)O (some centres not stated) | 58
CCCCC(C[C@@H](Cc1ccc(-c2ccccc2)cc1)C(=O)Nc1nc(CC(=O)O)cs1)C(=O)O (stereo in doubt) | 9.8
CCCCC(C[C@@H](Cc1ccc(-c2ccccc2)cc1)C(=O)Nc1nc(CC(=O)O)cs1)C(=O)O (single isomer, unassigned; isomer A) | 10
